Source: patent publication US11098032B2, “Pyran dervatives as CYP11A1 (cytochrome P450 monooxygenase 11A1) inhibitors” (ORION CORPORATION, priority 2016, dated 2021)
pIC50: −log10 of the molar value.

biological target: T1, CYP11A1 (Homo sapiens, UniProt P05108); assay: CYP11A1 inhibition: modified isocaproic acid release assay (IARA) in H295R cells; assay type: cell-based; settings: human H295R adrenocortical carcinoma cells treated three days, 3 nM [24,25-3H]-labelled cholesterol, 1% DMSO, 10 concentrations in duplicates; read-out: IC50 of the test compounds on CYP11A1 inhibition
T1 construct: human H295R adrenocortical carcinoma cell line was used as source of enzyme; endogenous in cells; host or cells: H295R human adrenocortical carcinoma cells
T1 sequence (P05108 40-521): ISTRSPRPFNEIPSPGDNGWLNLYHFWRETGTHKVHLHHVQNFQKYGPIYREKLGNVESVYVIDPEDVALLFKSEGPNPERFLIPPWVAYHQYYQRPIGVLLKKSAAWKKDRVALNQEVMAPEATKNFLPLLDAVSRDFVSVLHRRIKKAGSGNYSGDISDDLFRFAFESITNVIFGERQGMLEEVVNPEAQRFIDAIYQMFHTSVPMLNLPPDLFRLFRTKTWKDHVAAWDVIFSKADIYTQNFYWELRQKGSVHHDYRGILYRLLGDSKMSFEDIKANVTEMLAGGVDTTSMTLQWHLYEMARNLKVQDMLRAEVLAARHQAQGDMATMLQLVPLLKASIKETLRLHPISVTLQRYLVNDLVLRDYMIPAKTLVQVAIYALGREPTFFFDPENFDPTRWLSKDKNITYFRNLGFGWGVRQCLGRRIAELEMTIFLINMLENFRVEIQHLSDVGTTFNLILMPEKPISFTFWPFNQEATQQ
How it was run: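 H295R adrenocortical cells treated three days with test compounds at 10 concentrations in duplicate plus 3 nM [24,25-3H]-cholesterol, 1% DMSO final. Released radiolabelled isocaproic acid measured by scintillation counting after dextran-coated charcoal extraction; IC50 determined.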

Row | Compound | pIC50
1 | O=c1cc(CN2Cc3ccccc3C2)occ1OCc1ccc(CO)cc1 [Compound 123, 5-((4-(Hydroxymethyl)benzyl)oxy)-2-(isoindolin-2-ylmethyl)-4H-pyran-4-one] | 5.70 to 6.52
2 | CC1c2ccccc2CCN1Cc1cc(=O)c(OCc2ccc(C(=O)N3CCCC3)cc2)co1 (centres unmarked) [Compound 125, 2-((1-Methyl-3,4-dihydroisoquinolin-2(1H)-yl)methyl)-5-((4-(pyrrolidine-1-carbonyl)benzyl)oxy)-4H-pyran-4-one] | 5.70 to 6.52
3 | CN(C)C(=O)c1ccc(COc2coc(CN3Cc4ccc(F)cc4C3)cc2=O)cc1 [Compound 127, 4-(((6-((5-Fluoroisoindolin-2-yl)methyl)-4-oxo-4H-pyran-3-yl)oxy)methyl)-N,N-dimethylbenzamide] | 6.52 to 6.82
4 | O=C(c1ccc(COc2coc(CN3Cc4ccccc4C3)cc2=O)cc1)N1CCCCC1 [Compound 128, 2-(Isoindolin-2-ylmethyl)-5-((4-(piperidine-1-carbonyl)benzyl)oxy)-4H-pyran-4-one] | 6.52 to 6.82
5 | O=C(c1ccc(COc2coc(CN3Cc4ccccc4C3)cc2=O)cc1)N1CCC1 [Compound 129, 5-((4-(Azetidine-1-carbonyl)benzyl)oxy)-2-(isoindolin-2-ylmethyl)-4H-pyran-4-one] | > 6.82
6 | O=C(c1ccc(COc2coc(CN3Cc4ccc(Br)cc4C3)cc2=O)cc1)N1CCCC1 [Compound 130, 2-((5-Bromoisoindolin-2-yl)methyl)-5-((4-(pyrrolidine-1-carbonyl)benzyl)oxy)-4H-pyran-4-one] | > 6.82
7 | C[C@H]1c2ccccc2CN1Cc1cc(=O)c(OCc2ccc(C(=O)N(C)C)cc2)co1 [Compound 132, (S)—N,N-Dimethyl-4-(((6-((1-methylisoindolin-2-yl)methyl)-4-oxo-4H-pyran-3-yl)oxy)methyl)benzamide] | 5.70 to 6.52
8 | C[C@@H]1c2ccccc2CN1Cc1cc(=O)c(OCc2ccc(C(=O)N(C)C)cc2)co1 [Compound 133, (R)—N,N-Dimethyl-4-(((6-((1-methylisoindolin-2-yl)methyl)-4-oxo-4H-pyran-3-yl)oxy)methyl)benzamide] | 5.70 to 6.52
9 | CC(C)(C)NC(=O)c1ccc(COc2coc(CN3CCc4ccccc4C3)cc2=O)cc1 [Compound 135, N-(tert-Butyl)-4-(((6-((3,4-dihydroisoquinolin-2(1H)-yl)methyl)-4-oxo-4H-pyran-3-yl)oxy)methyl)benzamide] | 6.52 to 6.82
10 | CN(C)C(=O)c1ccc(COc2coc(CN3Cc4ccc(C(F)(F)F)cc4C3)cc2=O)cc1 [Compound 139, N,N-Dimethyl-4-(((4-oxo-6-((5-(trifluoromethyl)isoindolin-2-yl)methyl)-4H-pyran-3-yl)oxy)methyl)benzamide] | > 6.82
11 | CC(C)NC(=O)c1ccc(COc2coc(CN3Cc4ccccc4C3)cc2=O)cc1 [Compound 140, 4-(((6-(Isoindolin-2-ylmethyl)-4-oxo-4H-pyran-3-yl)oxy)methyl)-N-isopropylbenzamide] | 6.52 to 6.82
12 | C#CCNC(=O)c1ccc(COc2coc(CN3Cc4ccccc4C3)cc2=O)cc1 [Compound 141, 4-(((6-(Isoindolin-2-ylmethyl)-4-oxo-4H-pyran-3-yl)oxy)methyl)-N-(prop-2-yn-1-yl)benzamide] | 5.70 to 6.52
13 | CCCCCCNC(=O)c1ccc(COc2coc(CN3Cc4ccccc4C3)cc2=O)cc1 [Compound 142, N-Hexyl-4-(((6-(isoindolin-2-ylmethyl)-4-oxo-4H-pyran-3-yl)oxy)methyl)-benzamide] | 6.52 to 6.82
14 | CC(=O)OCC(C)(C)NC(=O)c1ccc(COc2coc(CN3Cc4ccccc4C3)cc2=O)cc1 [Compound 143, 2-(4-(((6-(Isoindolin-2-ylmethyl)-4-oxo-4H-pyran-3-yl)oxy)methyl)benzamido)-2-methylpropyl acetate] | 6.52 to 6.82
15 | O=C(NCCCCO)c1ccc(COc2coc(CN3Cc4ccccc4C3)cc2=O)cc1 [Compound 145, N-(4-Hydroxybutyl)-4-(((6-(isoindolin-2-ylmethyl)-4-oxo-4H-pyran-3-yl)oxy)-methyl)benzamide] | 5.70 to 6.52
16 | O=C(c1ccc(COc2coc(CN3CCc4ccccc4C3)cc2=O)cc1)N1CCCC(O)C1 (centres unmarked) [Compound 149, 2-((3,4-Dihydroisoquinolin-2(1H)-yl)methyl)-5-((4-(3-hydroxypiperidine-1-carbonyl)benzyl)oxy)-4H-pyran-4-one] | 5.70 to 6.52
17 | O=C(c1ccc(COc2coc(CN3Cc4ccc(F)cc4C3)cc2=O)cc1)N1CCC1 [Compound 150, 5-((4-(Azetidine-1-carbonyl)benzyl)oxy)-2-((5-fluoroisoindolin-2-yl)methyl)-4H-pyran-4-one] | 5.70 to 6.52
18 | CC(C)(CO)CNC(=O)c1ccc(COc2coc(CN3Cc4ccccc4C3)cc2=O)cc1 [Compound 151, N-(3-Hydroxy-2,2-dimethylpropyl)-4-(((6-(isoindolin-2-ylmethyl)-4-oxo-4H-pyran-3-yl)oxy)methyl)benzamide] | 5.70 to 6.52
19 | O=C(c1ccc(COc2coc(CN3Cc4ccccc4C3)cc2=O)cc1)N1CCC(O)CC1 [Compound 152, 5-((4-(4-Hydroxypiperidine-1-carbonyl)benzyl)oxy)-2-(isoindolin-2-ylmethyl)-4H-pyran-4-one] | 5.70 to 6.52
20 | O=C(COc1coc(CN2Cc3ccccc3C2)cc1=O)N1CCN(c2ccc(Cl)cc2)CC1 [Compound 154, 5-(2-(4-(4-Chlorophenyl)piperazin-1-yl)-2-oxoethoxy)-2-(isoindolin-2-ylmethyl)-4H-pyran-4-one] | 5.70 to 6.52
21 | O=C(COc1coc(CN2Cc3ccccc3C2)cc1=O)N1CCC(Cc2ccccc2)CC1 [Compound 155, 5-(2-(4-Benzylpiperidin-1-yl)-2-oxoethoxy)-2-(isoindolin-2-ylmethyl)-4H-pyran-4-one] | 5.70 to 6.52

Next, values leading:

Row | pIC50 | Compound
22 | 6.52 to 6.82 | CN(C)C(=O)c1ccc(COc2coc(CN3Cc4ccccc4C3)cc2=O)cc1 [Compound 120, 4-(((6-(Isoindolin-2-ylmethyl)-4-oxo-4H-pyran-3-yl)oxy)methyl)-N,N-dimethylbenzamide]
23 | 6.52 to 6.82 | COc1ccc(COc2coc(CN3CCc4ccccc4C3)cc2=O)cc1 [Compound 121, 2-((3,4-Dihydroisoquinolin-2(1H)-yl)methyl)-5-((4-methoxybenzyl)oxy)-4H-pyran-4-one]
24 | > 6.82 | O=C(c1ccc(COc2coc(CN3Cc4ccccc4C3)cc2=O)cc1)N1CCCC1 [Compound 122, 2-(Isoindolin-2-ylmethyl)-5-((4-(pyrrolidine-1-carbonyl)benzyl)oxy)-4H-pyran-4-one]
25 | 6.52 to 6.82 | CN(C)C(=O)c1ccc(COc2coc(CN3CCc4cc(F)ccc4C3)cc2=O)cc1 [Compound 124, 4-(((6-((6-Fluoro-3,4-dihydroisoquinolin-2(1H)-yl)methyl)-4-oxo-4H-pyran-3-yl)oxy)methyl)-N,N-dimethylbenzamide]
26 | 6.52 to 6.82 | CCN(CC)C(=O)c1ccc(COc2coc(CN3Cc4ccccc4C3)cc2=O)cc1 [Compound 126, N,N-Diethyl-4-(((6-(isoindolin-2-ylmethyl)-4-oxo-4H-pyran-3-yl)oxy)methyl)-benzamide]
27 | > 6.82 | CC(C)(C)NC(=O)c1ccc(COc2coc(CN3Cc4ccccc4C3)cc2=O)cc1 [Compound 131, N-(tert-Butyl)-4-(((6-(isoindolin-2-ylmethyl)-4-oxo-4H-pyran-3-yl)oxy)methyl)-benzamide]
28 | > 6.82 | CC(C)N(C(=O)c1ccc(COc2coc(CN3Cc4ccccc4C3)cc2=O)cc1)C(C)C [Compound 134]
29 | 6.52 to 6.82 | CN(C)C(=O)Cc1ccc(COc2coc(CN3Cc4ccccc4C3)cc2=O)cc1 [Compound 136, 2-(4-(((6-(Isoindolin-2-ylmethyl)-4-oxo-4H-pyran-3-yl)oxy)methyl)phenyl)-N,N-dimethylacetamide]
30 | > 6.82 | CN(C)C(=O)c1ccc(COc2coc(CN3Cc4ccc(Cl)cc4C3)cc2=O)cc1 [Compound 137, 4-(((6-((5-Chloroisoindolin-2-yl)methyl)-4-oxo-4H-pyran-3-yl)oxy)methyl)-N,N-dimethylbenzamide]
31 | > 6.82 | COc1ccc2c(c1)CN(Cc1cc(=O)c(OCc3ccc(C(=O)N(C)C)cc3)co1)C2 [Compound 138, 4-(((6-((5-Methoxyisoindolin-2-yl)methyl)-4-oxo-4H-pyran-3-yl)oxy)methyl)-N,N-dimethylbenzamide]
32 | 5.70 to 6.52 | C=Cc1ccc(COc2coc(CN3Cc4ccccc4C3)cc2=O)cc1 [Compound 144, 2-(Isoindolin-2-ylmethyl)-5-((4-vinylbenzyl)oxy)-4H-pyran-4-one]
33 | > 6.82 | CN(C)C(=O)/C=C/c1ccc(COc2coc(CN3Cc4ccccc4C3)cc2=O)cc1 [Compound 146, (E)-3-(4-(((6-(Isoindolin-2-ylmethyl)-4-oxo-4H-pyran-3-yl)oxy)methyl)phenyl)-N,N-dimethylacrylamide]
34 | 5.70 to 6.52 | CNC(=O)/C=C/c1ccc(COc2coc(CN3CCc4ccccc4C3)cc2=O)cc1 [Compound 148, (E)-3-(4-(((6-((3,4-Dihydroisoquinolin-2(1H)-yl)methyl)-4-oxo-4H-pyran-3-yl)oxy)methyl)phenyl)-N-methylacrylamide]
35 | 5.70 to 6.52 | O=C(COc1coc(CN2Cc3ccccc3C2)cc1=O)N1CCN(Cc2ccccc2)CC1 [Compound 153, 5-(2-(4-Benzylpiperazin-1-yl)-2-oxoethoxy)-2-(isoindolin-2-ylmethyl)-4H-pyran-4-one]
